According to PubChem BioAssay AID651912 (NMMLSC, 2012):

The compounds below were run against Beta-2 adrenergic receptor (Homo sapiens) (UniProt P07550) (assay: beta2AR agonists driving receptor internalization, dose response, cell-based, FAP fluorogen, flow cytometry, powder set 5 (AID 651912)). Details: AM2.2-beta2AR cells, 90 min.
Chain of Beta-2 adrenergic receptor (Homo sapiens) (P07550 whole entry, looked up): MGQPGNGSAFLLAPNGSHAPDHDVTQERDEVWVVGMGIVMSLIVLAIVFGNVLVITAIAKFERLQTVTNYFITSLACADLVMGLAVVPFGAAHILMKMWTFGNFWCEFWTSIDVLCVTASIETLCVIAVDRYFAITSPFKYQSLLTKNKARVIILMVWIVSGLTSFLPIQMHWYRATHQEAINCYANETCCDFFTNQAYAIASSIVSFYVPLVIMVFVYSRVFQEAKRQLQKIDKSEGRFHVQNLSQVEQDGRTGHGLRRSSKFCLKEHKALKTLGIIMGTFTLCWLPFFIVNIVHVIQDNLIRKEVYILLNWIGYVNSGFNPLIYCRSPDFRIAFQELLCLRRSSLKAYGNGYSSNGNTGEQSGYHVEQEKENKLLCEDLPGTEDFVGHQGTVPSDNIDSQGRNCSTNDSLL

Compound	EC50
CC(=O)Nc1ccc(S(=O)(=O)N2CCCCC2C)cc1 (configuration not stated)	80.2 nM
CC1CCCCN1S(=O)(=O)c1ccc(NC(=O)c2cccnc2)cc1 (configuration not stated)	134 nM
Cc1cccc(C(=O)Nc2ccc(S(=O)(=O)N3CCCCC3C)cc2)c1 (configuration not stated)	4030 nM
O=C(C1CCCN1S(=O)(=O)c1ccc(Cl)cc1)N1CCN(c2ccccn2)CC1 (configuration not stated)	219 nM

More lines, now with the values ahead:

EC50	Compound
336 nM	CN(CC(=O)N1CCN(c2ccc(F)cc2)CC1)S(=O)(=O)c1ccc(Br)cc1
132 nM	CCC1CCCCN1S(=O)(=O)c1ccc(NC(C)=O)cc1 (configuration not stated)
4.8 nM	CCC(=O)Nc1ccc(S(=O)(=O)N2CCCCC2CC)cc1 (configuration not stated)
